Measurements: US6600069B2, “Benzene tricarboxylic acid derivatives as insulin receptor activators” (Telik, Inc., priority 2000, dated 2003)

Tests used:
[1] = test system: 3T3 L1 fibroblasts differentiated to adipocytes; assay: Glucose transport activity (14C-2-deoxy-D-glucose uptake); assay type: cell-based; conditions: Mus musculus, 3T3-L1; concentration producing increase in glucose transport generally 150% of the vehicle control; insulin 5.6 nM; read-out: Glucose Transport EC (effective concentration)
Method: Glucose Transport Activity
3T3 L1 fibroblasts (ATCC) were grown in Dulbecco's modified Eagie's medium (DMEM) with 10% fetal bovine serum (FBS). The cells were plated at a density of 3×10^4 cells/well in 24-well plates. Two days after confluence was reached, the cells were treated for 3 days with […] isobutylmethylxanthine (IBMX), 1 μM dexamethasone, and 1.7 μM insulin. The cells were then transferred to DMEM with 10% fresh bovine serum with 1.7 μM insulin for 2 more days. The cells were maintained in DMEM with 10% FBS for an additional 4 days. Finally the cells were serum starved overnight in 0.1% bovine serum albumin (BSA) in DMEM prior to exposure to the test compounds.
The following day, the medium was replaced with 150 mM NaCl, 1.7 mM KCl, 0.9 mM CaCl2, K2HPO4 (pH 7.4) to which was added either the experimental compounds, or their vehicle (DMSO). Insulin or its vehicle (0.01% BSA) was diluted in the assay buffer (containing test compound or vehicle, respectively) to a final concentration of 5.6 nM. After incubation for 30 min at 37° C., 0.5 μCi/ml of ^14C-2-deoxy-D-glucose was added, and the incubation was continued for additional 30 min at 37° C. The cells were then washed 3 times with ice-cold PBS/20 mM glucose and lysed in 250 μl of lysis buffer (50 mM HEPES pH 7.6, 1% Triton X-100) for 30 min at room temperature. Radioactivity in the lysate was quantified by scintillation counting.
Once ^14C-2-deoxy-D-glucose is transported into the cell it is not released. Glucose transport is, therefore, proportional to the amount of radioactivity in the lysate. The concentration of compound necessary to produce an increase in glucose transport greater than the sum of the standard deviation of the vehicle control plus the largest standard deviation of a test sample (generally 150% of the vehicle control) was recorded as the EC (effective concentration) The results of the glucose transport activity assay are shown in Table 2,

[2] = biological target: T1, β-kinase domain of the human insulin receptor (CKD) (Homo sapiens, UniProt P06213); assay: 32P-cytoplasmic kinase domain (CKD) autophosphorylation assay; assay type: biochemical; conditions: 32P incorporated into CKD band, 10 minutes at room temperature, 50 μM ATP; test concentration not given
T1 construct: The complete β-kinase domain of the human insulin receptor (CKD); made in house
Method: ^32P-cytoplasmic Kinase Domain (CKD) Autophosphorylation Assay
The complete β-kinase domain of the human insulin receptor (CKD) was expressed in, and purified from, baculovirus. CKD (4.0 μg/ml), in a solution of 29 mM HEPES (pH 7.6), 0.05% Triton X-100, 10 mM MgCl2, 2 mM MnCl2 (50 μl final volume), was combined with 50 μM ATP, and 5 μCi ^32P-ATP (3000 Ci/mmol.). A test compound, or the vehicle (DMSO), was added to a final DMSO concentration of 1%. The mixture was incubated for 10 minutes at room temperature. The reaction was terminated by the addition of 10 μl of 200 mM EDTA. A 30 μl volume was removed, mixed with 5 μl of 6× Laemmeli sodium dodecyl sulfate (SDS) treatment buffer, and heated to 95° C. for 5 minutes. A 20 μl aliquot was then run on an SDS-PAGE gel. The radioactivity incorporated into the CKD band is quantified by phosphorimaging of the gel, or scintillation counting of the excised bands.
The potency of a compound for increasing phosphorylation is expressed as a percentage of the vehicle level.

T1 sequence (P06213 980-1382 limits assumed): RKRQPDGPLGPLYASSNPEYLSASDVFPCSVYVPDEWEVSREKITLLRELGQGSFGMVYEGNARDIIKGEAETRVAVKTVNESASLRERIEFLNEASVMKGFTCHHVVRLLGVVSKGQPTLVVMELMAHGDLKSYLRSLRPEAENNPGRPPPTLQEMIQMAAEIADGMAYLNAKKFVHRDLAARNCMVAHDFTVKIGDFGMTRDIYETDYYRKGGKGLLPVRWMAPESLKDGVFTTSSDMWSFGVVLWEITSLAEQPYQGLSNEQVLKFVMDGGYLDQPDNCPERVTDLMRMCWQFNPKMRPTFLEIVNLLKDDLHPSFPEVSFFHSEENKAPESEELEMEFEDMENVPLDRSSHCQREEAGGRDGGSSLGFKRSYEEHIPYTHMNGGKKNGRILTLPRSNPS

Structure (SMILES)	EC50 [1] [µM]	CKD phosphorylation (percentage of the vehicle level) [2] [%]
O=C(O)c1cc(NC(=O)c2cc(C(=O)Nc3cc(C(=O)O)cc(C(=O)O)c3)cc(C(=O)Nc3cc(C(=O)O)cc(C(=O)O)c3)c2)cc(C(=O)O)c1 [Compound 21, 5-({3,5-bis[N-(3,5-dicarboxyphenyl)carbamoyl]phenyl}carbonylamino)benzene-1,3-dicarboxylic acid]	3.2	97.8
O=C(Nc1cccc(C(=O)O)c1C(=O)O)c1cc(C(=O)Nc2cccc(C(=O)O)c2C(=O)O)cc(C(=O)Nc2cccc(C(=O)O)c2C(=O)O)c1 [Compound 22, 3-({3,5-bis[N-(2,3-dicarboxyphenyl)carbamoyl]phenyl}carbonylamino)benzene-1,2-dicarboxylic acid]	3.2	118.1
COC(=O)c1ccccc1NC(=O)c1cc(C(=O)Nc2ccccc2C(=O)OC)cc(C(=O)Nc2ccccc2C(=O)OC)c1 [Compound 23, methyl 2-[(3,5-bis{N-[2-(methoxycarbonyl)phenyl]carbamoyl}phenyl)carbonyl-amino]benzoate]	1.6	87.4
